Read-outs that look alike come from different tables or passages of the source.
Legend:
S1P1 [1] = molecular target: T1, S1P1 (Homo sapiens, UniProt P21453); assay: Receptor binding assay, [33P]sphingosine 1-phosphate competition (SPA), S1P1
Method: Cells were suspended in 50 mM TRIS, pH 7.4, 2 mM EDTA, 250 mM Sucrose (buffer A) and 1× Complete protease inhibitor cocktail (Roche), and disrupted at 4° C. by N2 decompression using a cell disruption bomb (Parr Instrument). […] The pellet was then suspended in 10 mM HEPES, pH 7.4, 1 mM EDTA, 250 mM Sucrose (Buffer B), and 1× Complete EDTA-free protease inhibitor cocktail and homogenized using a potter. Membranes were flash frozen in liquid N2 and stored at −80° C.
[33P]sphingosine 1-phosphate (3000 Ci/mmol; American Radiolabeled Chemicals, Inc.) was added to test compounds in 20% DMSO by competition. […] Triplicate samples were averaged and normalized as percentage of inhibition relative to total binding (only DMSO in well) and non-specific binding (1000-fold excess of unlabeled S1P). Binding data were analyzed using the GraphPad Prism program or Genedata software.
Target sequence in this assay (P21453 whole entry, species assumed): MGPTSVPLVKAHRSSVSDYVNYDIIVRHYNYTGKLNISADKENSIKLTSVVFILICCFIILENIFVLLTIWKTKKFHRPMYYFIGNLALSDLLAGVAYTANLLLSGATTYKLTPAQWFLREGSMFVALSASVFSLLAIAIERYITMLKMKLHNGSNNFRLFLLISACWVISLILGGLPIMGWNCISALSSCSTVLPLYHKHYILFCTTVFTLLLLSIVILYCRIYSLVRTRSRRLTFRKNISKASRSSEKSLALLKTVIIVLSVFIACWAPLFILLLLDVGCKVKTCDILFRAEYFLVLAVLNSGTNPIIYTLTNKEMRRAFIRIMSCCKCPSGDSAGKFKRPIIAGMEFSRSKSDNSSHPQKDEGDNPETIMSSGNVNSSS

S1P1 [2] = molecular target: T1, S1P1; assay: S1P1 internalization assay in S1P1-U2OS cells (cell imaging); type: cell-based; details: U2OS cells expressing S1P1-EGFP, 1 hour
Method: Cellular functional assays: Internalization of Sphingosine-1-phosphate receptor 1 (S1P1) in a human Cell line (U2OS) in a 384-well format using a Cell Imaging analysis.
The S1P1 internalization assay was performed in 384 well plates (Corning® 384 black with clear bottom 3712) using S1P1-U2OS cells from Biolmage (C039A), a human epithelial cell line (Human Bone Osteosarcoma Epithelial Cells). These cells expressed the human S1P1 Receptor fused to the green fluorescent protein (EGFP). A standard CMV promoter (cytomegalovirus promoter) controls the expression of S1P1-EGFP and continuous expression was maintained by addition of geneticin to the culture medium.
S1P1Receptor desensitization induced the internalization of the membrane-localized S1P1-EGFP fusion protein to endosomes, which can be monitored by cell imaging analysis. The cells are plated in low serum medium (Dulbecco's Modified Eagle Medium (DMEM) with Glutamax-1 and high glucose, 1% Penicillin/Streptomycin, 1% Fetal Calf Serum (FCS), 0.5 mg/ml Geneticin) overnight.
The next day, S1P1-U2OS cells are incubated in 20 μl serum free medium (DMEM with Glutamax-1 and high glucose, 0.1% of fatty-acid free Bovin Serum Albumin (BSA), 10 mM, N′-2-Hydroxyethylpiperazine-N′-2 ethanesulphonic acid (HEPES) 1M) for 2 hours at 37° C./5% CO2. The cells are then treated with 4 μl compounds/agonists (6×/3% DMSO) for a total volume of 24 μl, and plates are incubated for 1 hour at 37° C./5% CO2.
S1P1-U2OS cells are fixed with 25 μl Paraformaldehyde 8% and stained with Hoechst 33345 dye (1:1000) for 20 minutes.
They were then washed 3 times with Phosphate Buffered Saline (PBS) and plates are sealed. The internalization of the receptor S1P1-EGFP is measured on Cellomics by calculating the “spot count per object” (“object” corresponds to nuclear and “spot” corresponds to S1P1-EGFP receptor). Internalization data were observed thanks to vHCS View and analyzed using Genedata® software.
Target sequence in this assay (P21453 whole entry): as the sequence (P21453 whole entry, species assumed) above

S1P3 = S1P3 (Homo sapiens, UniProt Q99500); assay: Receptor binding assay, [33P]sphingosine 1-phosphate competition (SPA), S1P3
Sequence of S1P3 (Q99500 whole entry, species assumed): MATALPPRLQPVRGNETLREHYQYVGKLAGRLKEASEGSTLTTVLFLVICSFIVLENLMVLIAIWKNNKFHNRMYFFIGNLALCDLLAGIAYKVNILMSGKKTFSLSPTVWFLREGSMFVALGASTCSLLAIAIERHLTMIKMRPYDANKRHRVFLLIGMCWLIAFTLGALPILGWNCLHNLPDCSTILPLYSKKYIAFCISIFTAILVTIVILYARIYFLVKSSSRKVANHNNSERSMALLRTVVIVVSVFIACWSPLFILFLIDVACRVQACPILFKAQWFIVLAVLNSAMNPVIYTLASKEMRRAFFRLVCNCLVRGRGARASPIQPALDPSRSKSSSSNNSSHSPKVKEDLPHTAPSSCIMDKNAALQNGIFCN
Method: Membranes were prepared from CHO cells expressing S1P1 or S1P3 for use in ligand and […] binding studies. Cells were suspended in 50 mM TRIS, pH 7.4, 2 mM EDTA, 250 mM Sucrose (buffer A) and 1× Complete protease inhibitor cocktail (Roche), and disrupted at 4° C. by N2 decompression using a cell disruption bomb (Parr Instrument). Following centrifugation at 1000 RPM for 10 min at 4° C., the supernatant was diluted (2×) in buffer A and centrifuged again at 19000 RPM for 75 min at 4° C. The pellet was then suspended in 10 mM HEPES, pH 7.4, 1 mM EDTA, 250 mM Sucrose (Buffer B), and 1× Complete EDTA-free protease inhibitor cocktail and homogenized using a potter. Membranes were flash frozen in liquid N2 and stored at −80° C.
[33P]sphingosine 1-phosphate (3000 Ci/mmol; American Radiolabeled Chemicals, Inc.) was added to test compounds in 20% DMSO by competition. Membranes and WGA SPA beads (GE Healthcare) were added to give a final volume of 100 μl in 96-well plates or 50 μl in 384-well plates with assay concentrations of 30 pM or 15 pM [33P]sphingosine 1-phosphate (respectively for S1P1 or S1P3), 50 mM HEPES, pH 7.5, 5 mM MgCl2, 100 mM NaCl, 0.4% fatty acid-free BSA, 1-5 μg/well of proteins in 96-well plates vs 0.6-1 μg/well of proteins in 384-well plates and 100 μg/well of WGA SPA beads in 96-well plates vs 75 μg/well of WGA SPA beads in 384-well plates. Binding was performed for 60 min at RT on a shaker and bound radioactivity was measured on a PerkinElmer 1450 MicroBeta counter. Triplicate samples were averaged and normalized as percentage of inhibition relative to total binding (only DMSO in well) and non-specific binding (1000-fold excess of unlabeled S1P). Binding data were analyzed using the GraphPad Prism program or Genedata software.

[3] = 96 well-plate, read-out: S1P1 binding Ki (M) (96 well-plate)
[4] = 384 well-plate, read-out: S1P1 binding Ki (M) (384 well-plate)
[5] = 96 well-plate, read-out: S1P3 binding Ki (M) (96 well-plate)
[6] = 384 well-plate, read-out: S1P3 binding Ki (M) (384 well-plate)

CN(CC(=O)O)Cc1ccc(-c2noc(-c3ccc(-c4ccccc4F)c(C(F)(F)F)c3)n2)cc1 [Example 89, N-(4-{5-[2′-fluoro-2-(trifluoromethyl)biphenyl-4-yl]-1,2,4-oxadiazol-3-yl}benzyl)-N-methylglycine]
Ki (S1P1 [1]; [3]): 3.49e-10 M | Ki (S1P1 [1]; [4]): 1.19e-09 M | EC50 (S1P1 [2]): 6.53 nM | Ki (S1P3; [5]): 6.29e-07 M | Ki (S1P3; [6]): 5.69e-07 M

COCCN(CC(=O)O)Cc1ccc(-c2noc(-c3ccc(-c4ccccc4C)c(C(F)(F)F)c3)n2)cc1 [Example 138, N-(2-methoxyethyl)-N-(4-{5-[2′-methyl-2-(trifluoromethyl)biphenyl-4-yl]-1,2,4-oxadiazol-3-yl}benzyl)glycine]
Ki (S1P1 [1]; [4]): 5.16e-09 M | EC50 (S1P1 [2]): 26.1 nM | Ki (S1P3; [6]): 4.79e-07 M

COCc1cc(-c2nc(-c3ccc(CN(C)CC(=O)O)c(F)c3)no2)ccc1-c1ccccc1C(F)(F)F [Example 95, N-(2-fluoro-4-{5-[2-(methoxymethyl)-2′-(trifluoromethyl)biphenyl-4-yl]-1,2,4-oxadiazol-3-yl}benzyl)-N-methylglycine]
Ki (S1P1 [1]; [3]): 4.26e-10 M | Ki (S1P1 [1]; [4]): 3.67e-09 M | EC50 (S1P1 [2]): 13.9 nM | Ki (S1P3; [5]): 6.5e-07 M | Ki (S1P3; [6]): 1.03e-06 M

Cc1cc(-c2noc(-c3ccc(-c4ccccc4C)c(C(F)(F)F)c3)n2)ccc1CN(C)CC(=O)O [Example 154, 2-(methyl(2-methyl-4-(5-(2′-methyl-2-(trifluoromethyl)biphenyl-4-yl)-1,2,4-oxadiazol-3-yl)benzyl)amino)acetic acid]
Ki (S1P1 [1]; [4]): 3.16e-09 M | EC50 (S1P1 [2]): 17.3 nM | Ki (S1P3; [6]): 1.07e-06 M

Cc1ccccc1-c1ccc(-c2nc(-c3ccc(CN(CC(=O)O)C(C)C)cc3)no2)cc1C(F)(F)F [Example 113, (Isopropyl-{4-[5-(2′-methyl-2-trifluoromethyl-biphenyl-4-yl)-[1,2,4]oxadiazol-3-yl]-benzyl}-amino)-acetic acid]
Ki (S1P1 [1]; [4]): 2.9e-09 M | EC50 (S1P1 [2]): 24.8 nM | Ki (S1P3; [5]): 2.17e-06 M | Ki (S1P3; [6]): 2.7e-06 M

Cc1cc(-c2nc(-c3ccc(CN(C)CC(=O)O)c(F)c3)no2)ccc1-c1ccccc1C(F)(F)F [Example 123, N-(2-fluoro-4-{5-[2-methyl-2′-(trifluoromethyl)biphenyl-4-yl]-1,2,4-oxadiazol-3-yl}benzyl)-N-methylglycine]
Ki (S1P1 [1]; [4]): 3.46e-09 M | EC50 (S1P1 [2]): 30.4 nM | Ki (S1P3; [6]): 6.9e-06 M

Cc1cc(-c2nc(-c3ccc(CN(C)CC(=O)O)cc3)no2)ccc1-c1ccccc1C(F)(F)F [Example 100, N-methyl-N-(4-{5-[2-methyl-2′-(trifluoromethyl)biphenyl-4-yl]-1,2,4-oxadiazol-3-yl}benzyl)glycine]
Ki (S1P1 [1]; [3]): 1.04e-09 M | Ki (S1P1 [1]; [4]): 3.49e-09 M | EC50 (S1P1 [2]): 56.1 nM | Ki (S1P3; [5]): 9.43e-06 M | Ki (S1P3; [6]): 9.67e-06 M

CN(CC(=O)O)Cc1cc(F)cc(-c2noc(-c3ccc(-c4ccccc4)c(C(F)(F)F)c3)n2)c1 [Example 67]
Ki (S1P1 [1]; [3]): 2.31e-10 M | EC50 (S1P1 [2]): 11.9 nM | Ki (S1P3; [5]): 3.69e-08 M

CCc1cc(-c2noc(-c3ccc(-c4ccccc4C)c(C(F)(F)F)c3)n2)ccc1CN(C)CC(=O)O [Example 155, 2-((2-ethyl-4-(5-(2′-methyl-2-(trifluoromethyl)biphenyl-4-yl)-1,2,4-oxadiazol-3-yl)benzyl)(methy)amino)acetic acid]
Ki (S1P1 [1]; [4]): 3.72e-09 M | EC50 (S1P1 [2]): 17.3 nM | Ki (S1P3; [6]): 8.1e-06 M

Cc1ccccc1-c1ccc(-c2nc(-c3ccc(Cl)c(CN(C)CC(=O)O)c3)no2)cc1C(F)(F)F [Example 111, N-(2-chloro-5-{5-[2′-methyl-2-(trifluoromethyl)biphenyl-4-yl]-1,2,4-oxadiazol-3-yl}benzyl)-N-methylglycine]
Ki (S1P1 [1]; [4]): 3.68e-09 M | EC50 (S1P1 [2]): 45.9 nM

Cc1cc(-c2nc(-c3ccc(CN(C)CC(=O)O)cc3Cl)no2)ccc1-c1ccccc1C(F)(F)F [Example 153, 2-((3-chloro-4-(5-(2-methyl-2′-(trifluoromethyl)biphenyl-4-yl)-1,2,4-oxadiazol-3-yl)benzyl)(methyl)amino)acetic acid]
Ki (S1P1 [1]; [4]): 3.32e-09 M | EC50 (S1P1 [2]): 50.9 nM | Ki (S1P3; [6]): 7.5e-06 M

Cc1cc(-c2nc(-c3ccc(CN(C)CC(=O)O)c(F)c3F)no2)ccc1-c1ccccc1C(F)(F)F [Example 152, 2-((2,3-difluoro-4-(5-(2-methyl-2′-(trifluoromethyl)biphenyl-4-yl)-1,2,4-oxadiazol-3-yl)benzyl)(methyl)amino)acetic acid]
Ki (S1P1 [1]; [4]): 3.71e-09 M | EC50 (S1P1 [2]): 68.4 nM | Ki (S1P3; [6]): 1.25e-05 M

COCc1cc(-c2nc(-c3ccc(CN(C)CC(=O)O)c(C(F)(F)F)c3)no2)ccc1-c1ccccc1C [Example 105]
Ki (S1P1 [1]; [4]): 3.3e-09 M | EC50 (S1P1 [2]): 74.9 nM | Ki (S1P3; [5]): 1.83e-06 M | Ki (S1P3; [6]): 1.88e-06 M

COCc1cc(-c2nc(-c3ccc(CN(C)CC(=O)O)cc3)no2)ccc1-c1ccccc1C(F)(F)F [Example 97, N-(4-{5-[2-(methoxymethyl)-2′-(trifluoromethyl)biphenyl-4-yl]-1,2,4-oxadiazol-3-yl}benzyl)-N-methylglycine]
Ki (S1P1 [1]; [4]): 2.08e-09 M | EC50 (S1P1 [2]): 12 nM | Ki (S1P3; [5]): 1.57e-06 M | Ki (S1P3; [6]): 2.22e-06 M

Cc1ccccc1-c1ccc(-c2nc(-c3cc(F)cc(CN(C)CC(=O)O)c3)no2)cc1C(F)(F)F [Example 64, N-(3-fluoro-5-{5-[2′-methyl-2-(trifluoromethyl)biphenyl-4-yl]-1,2,4-oxadiazol-3-yl}benzyl)-N-methylglycine]
Ki (S1P1 [1]; [3]): 2.96e-10 M | EC50 (S1P1 [2]): 8.11 nM | Ki (S1P3; [5]): 3.68e-08 M

Cc1ccccc1-c1ccc(-c2nc(-c3ccc(CN(C)CCC(=O)O)c(F)c3)no2)cc1C(F)(F)F [Example 71, N-(2-fluoro-4-{5-[2′-methyl-2-(trifluoromethyl)biphenyl-4-yl]-1,2,4-oxadiazol-3-yl}benzyl)-N-methyl-beta-alanine]
Ki (S1P3; [5]): 1.31e-07 M

Cc1ccccc1-c1ccc(-c2nc(-c3cccc(CN(CC(=O)O)C(C)C)c3)no2)cc1C(F)(F)F [Example 117, (Isopropyl-{3-[5-(2′-methyl-2-trifluoromethyl-biphenyl-4-yl)-[1,2,4]oxadiazol-3-yl]-benzyl}-amino)-acetic acid]
Ki (S1P1 [1]; [4]): 3.24e-09 M | EC50 (S1P1 [2]): 50.4 nM

CCc1ccccc1-c1ccc(-c2nc(-c3ccc(CN(C)CC(=O)O)c(F)c3)no2)cc1C(F)(F)F [Example 110, N-(4-{5-[2′-ethyl-2-(trifluoromethyl)biphenyl-4-yl]-1,2,4-oxadiazol-3-yl}-2-fluorobenzyl)-N-methylglycine]
Ki (S1P1 [1]; [4]): 6.22e-09 M | EC50 (S1P1 [2]): 56.7 nM

CN(CC(=O)O)Cc1ccc(-c2noc(-c3ccc(-c4ccccc4C(F)(F)F)c(Cl)c3)n2)cc1 [Example 135]
Ki (S1P1 [1]; [4]): 2.63e-09 M | EC50 (S1P1 [2]): 26.1 nM

Source: patent US8802704B2, “Oxadiazole derivatives” (Merck Serono SA, priority 2009, dated 2014)
